# Results from PubChem BioAssay (NCI).
#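 Cells were grown in 96-well plates and exposed to each compound for 48 hours at five concentrations; endpoints were interpolated linearly between bracketing concentrations, or set to the highest concentration if not reached. GI50: concentration for 50% inhibition of growth. TGI denotes the concentration required for complete inhibition of growth.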
# Legend:
# Experiment in all cases: NCI tumour cell line growth inhibition, 48 h
# 786-0 renal = system: 786-0 renal
# EKVX NSCLC = system: EKVX NSCLC
# HT29 colon = system: HT29 colon
# IGROV1 ovarian = system: IGROV1 ovarian
# K-562 leukemia = system: K-562 leukemia
# MALME-3M melanoma = system: MALME-3M melanoma
# OVCAR-5 ovarian = system: OVCAR-5 ovarian
# SN12C renal = system: SN12C renal
# SR leukemia = system: SR leukemia
# UACC-62 melanoma = system: UACC-62 melanoma
SMILES,GI50 (786-0 renal) [µM],TGI (786-0 renal) [µM],GI50 (EKVX NSCLC) [µM],TGI (EKVX NSCLC) [µM],GI50 (HT29 colon) [µM],TGI (HT29 colon) [µM],GI50 (IGROV1 ovarian) [µM],TGI (IGROV1 ovarian) [µM],GI50 (K-562 leukemia) [µM],TGI (K-562 leukemia) [µM],GI50 (MALME-3M melanoma) [µM],TGI (MALME-3M melanoma) [µM],GI50 (OVCAR-5 ovarian) [µM],TGI (OVCAR-5 ovarian) [µM],GI50 (SN12C renal) [µM],TGI (SN12C renal) [µM],GI50 (SR leukemia) [µM],TGI (SR leukemia) [µM],GI50 (UACC-62 melanoma) [µM],TGI (UACC-62 melanoma) [µM]
Cc1ccc(Nc2ccnc(Nc3cccc(C(N)=O)c3)n2)cc1O,8.09,> 25,9.2,> 25,13.9,> 25,5.37,15.1,1.34,> 25,6.27,> 25,10.2,> 25,3.7,> 25,11.3,> 25,7.08,> 25
O=c1c2c(=NCCCN3CCCC3)cc3c(=O)n(CCCN4CCCC4)c(=O)c4c(NCCCN5CCCC5)cc(c(O)n1CCCN1CCCC1)c2c4-3,12.9,> 100,2.79,12.9,1.51,6.49,3.51,12,3.36,> 100,2.73,7.98,1.64,4.74,3.11,34.2,6.88,81.9,2.34,5.12
CC(Cl)CC(=O)Nc1ccc2c(c1)oc(=O)c1cc(NC(=O)CC(C)Cl)ccc12 (stereo not given),16.9,44.1,27,88,12.2,34.5,1.73,23.1,13.8,33.6,4.28,21.3,16.8,46.3,16.4,32,3.42,20.7,15.1,49.9
CCCC/C(C)=N/NC(N)=S,–,> 100,–,> 100,–,> 100,–,> 100,–,> 100,–,> 100,–,> 100,–,> 100,–,> 100,–,> 100
COc1ccc(/C=C/CO)cc1OC,–,> 100,–,> 100,–,> 100,–,> 100,–,> 100,–,> 100,–,> 100,–,> 100,–,> 100,–,> 100
COc1ccccc1OCC(O)CO (stereo not given),> 100,> 100,> 100,> 100,> 100,> 100,> 100,> 100,> 100,> 100,> 100,> 100,> 100,> 100,> 100,> 100,> 100,> 100,> 100,> 100
COc1ccc(-c2nc(N)nc(-c3cc(C)ccc3O)c2Cl)cc1,–,> 100,–,> 100,–,> 100,–,> 100,–,> 100,–,> 100,–,> 100,–,> 100,–,> 100,–,> 100
COc1ccccc1OCC(COC(=O)Nc1ccc(C)cc1)OC(=O)Nc1ccc(C)cc1 (stereo not given),–,44,–,65.8,–,38.3,–,60.1,–,45.5,–,48.3,–,47.4,–,42.3,–,59.6,–,30.6
COc1ccc2c3c([nH]c2c1)[C@H]1C[C@H]2[C@H](C[C@@H](O)[C@H](OC)[C@H]2C(=O)O)CN1CC3,–,> 100,–,> 100,–,> 100,–,> 100,–,> 100,–,> 100,–,> 100,–,> 100,–,> 100,–,> 100
COCCn1cc(-c2csc(-c3c[nH]c4ccc(F)cc34)n2)c2cccnc21,5.12,> 100,1.98,> 100,2.9,> 100,3.49,> 100,2.12,> 100,4.54,> 100,10.1,> 100,> 100,> 100,3.24,> 100,6.78,> 100
